# In patent US7074789B2, “Kinase inhibitors” (Amgen Inc., priority 1999, dated 2006):
# Tests used:
# Assay type in all cases: biochemical
# Flt-1 = biological target: T1, Flt-1 (Homo sapiens, UniProt P17948); assay: Kinase inhibition assay (33P transfer), Flt-1
# T1 construct: Kinases are expressed as either kinase domains or full length constructs; made in house
# Procedure, shortened: (§1)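 Radiometric format: recombinant tagged kinase (catalytic domain or whole protein, sometimes combined with regulatory polypeptides) phosphorylates immobilised poly(Glu,Tyr) 4:1 or poly(Arg,Ser) 3:1 using [33P]ATP. Wells are washed in 0.5% phosphoric acid, then counted. IC50 is taken where substrate labelling falls by half.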
# Fyn = biological target: T2, Fyn (Homo sapiens, UniProt P06241); assay: Kinase inhibition assay (33P transfer), Fyn; conditions: read-out: Fyn-1
# T2 construct: Kinases are expressed as either kinase domains or full length constructs; made in house
# Procedure, shortened: as §1
# PDGFRB = biological target: T3, PDGFRB (Homo sapiens, UniProt P09619); assay: Kinase inhibition assay (33P transfer), PDGFRB; conditions: read-out: PDGFRB-1
# T3 construct: Kinases are expressed as either kinase domains or full length constructs; made in house
# Itk = biological target: T4, Itk (Homo sapiens, UniProt Q08881); assay: Kinase inhibition assay (33P transfer), Itk; conditions: Table 3; read-out: Itk-1
# T4 construct: Kinases are expressed as either kinase domains or full length constructs; made in house
# T4 sequence (Q08881 1-620): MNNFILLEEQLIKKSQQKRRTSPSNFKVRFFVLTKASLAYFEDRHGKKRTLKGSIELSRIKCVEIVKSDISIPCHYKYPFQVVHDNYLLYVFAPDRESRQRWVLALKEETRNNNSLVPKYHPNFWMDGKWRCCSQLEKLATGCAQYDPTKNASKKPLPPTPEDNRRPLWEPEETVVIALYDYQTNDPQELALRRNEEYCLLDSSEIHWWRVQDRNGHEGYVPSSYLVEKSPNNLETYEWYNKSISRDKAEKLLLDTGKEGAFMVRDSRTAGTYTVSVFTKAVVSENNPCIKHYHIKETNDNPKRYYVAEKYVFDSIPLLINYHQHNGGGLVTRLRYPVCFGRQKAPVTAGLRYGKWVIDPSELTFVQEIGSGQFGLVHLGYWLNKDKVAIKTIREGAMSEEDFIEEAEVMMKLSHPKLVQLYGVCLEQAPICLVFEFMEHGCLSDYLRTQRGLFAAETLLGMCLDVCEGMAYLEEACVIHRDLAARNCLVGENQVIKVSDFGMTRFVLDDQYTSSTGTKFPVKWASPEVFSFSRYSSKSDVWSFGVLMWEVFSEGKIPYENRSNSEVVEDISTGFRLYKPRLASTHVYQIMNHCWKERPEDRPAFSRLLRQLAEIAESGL
# Procedure, shortened: as §1
# Lck = biological target: T5, Lck (Homo sapiens, UniProt P06239); assay: Kinase inhibition assay (33P transfer), Lck; conditions: Table 3; read-out: Lck-1
# T5 construct: Kinases are expressed as either kinase domains or full length constructs; made in house
# Procedure, shortened: (§2)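 GST/His-tagged kinase (domain or full length; E. coli or baculovirus) + [33P]ATP on plates coated with poly(Glu,Tyr) 4:1 or poly(Arg,Ser) 3:1; incubate, wash 0.5% H3PO4, add scintillant, count.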
# Kdr = biological target: T6, Kdr (Homo sapiens, UniProt P35968); assay: Kinase inhibition assay (33P transfer), Kdr; conditions: Table 3; read-out: KDR-1
# T6 construct: Kinases are expressed as either kinase domains or full length constructs; made in house
# Procedure, shortened: as §2
# ErbB4 = biological target: T7, ErbB4 (Homo sapiens, UniProt Q15303); assay: Kinase inhibition assay (33P transfer), ErbB4; conditions: read-out: ErbB4-1
# T7 construct: Kinases are expressed as either kinase domains or full length constructs; made in house
# Zap-70 = biological target: T8, Zap-70 (Homo sapiens, UniProt P43403); assay: Kinase inhibition assay (33P transfer), Zap-70; conditions: Table 3; read-out: Zap-1
# T8 construct: Kinases are expressed as either kinase domains or full length constructs; made in house
# T8 sequence (P43403 1-619): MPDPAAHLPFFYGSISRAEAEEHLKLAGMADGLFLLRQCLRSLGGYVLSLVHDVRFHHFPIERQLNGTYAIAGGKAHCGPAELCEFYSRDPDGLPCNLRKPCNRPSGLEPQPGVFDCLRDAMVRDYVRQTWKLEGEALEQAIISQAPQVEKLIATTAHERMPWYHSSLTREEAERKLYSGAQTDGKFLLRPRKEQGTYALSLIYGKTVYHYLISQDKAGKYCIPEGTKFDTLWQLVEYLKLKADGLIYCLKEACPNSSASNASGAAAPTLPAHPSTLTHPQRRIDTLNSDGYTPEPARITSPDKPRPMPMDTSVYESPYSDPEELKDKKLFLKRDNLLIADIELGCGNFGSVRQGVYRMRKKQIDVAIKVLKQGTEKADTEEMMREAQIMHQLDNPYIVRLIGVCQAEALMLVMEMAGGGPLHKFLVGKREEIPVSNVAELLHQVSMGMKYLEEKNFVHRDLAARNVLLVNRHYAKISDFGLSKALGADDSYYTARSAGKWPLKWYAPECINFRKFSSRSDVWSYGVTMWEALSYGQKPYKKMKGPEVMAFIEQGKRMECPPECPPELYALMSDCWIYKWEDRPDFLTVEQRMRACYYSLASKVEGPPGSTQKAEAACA
# Procedure, shortened: as §2
# IGFR-1 = biological target: T9, IGFR-1 (Homo sapiens, UniProt P08069); assay: Kinase inhibition assay (33P transfer), IGFR-1; conditions: Table 2, kinase inhibition class
# T9 construct: Kinases are expressed as either kinase domains or full length constructs; made in house
# FGFR1 = biological target: T10, FGFR1 (Homo sapiens, UniProt P11362); assay: Kinase inhibition assay (33P transfer), FGFR1; conditions: read-out: FGFR1-1
# T10 construct: Kinases are expressed as either kinase domains or full length constructs; made in house
# AKT = biological target: T11, AKT (Homo sapiens, UniProt Q9Y243); assay: Kinase inhibition assay (33P transfer), AKT; conditions: Table 2, kinase inhibition class; read-out: AKT3-1
# T11 construct: Kinases are expressed as either kinase domains or full length constructs; made in house
# Procedure, shortened: as §2
# Hck-1 = biological target: T12, Hck-1 (Homo sapiens, UniProt P08631); assay: Kinase inhibition assay (33P transfer), Hck; conditions: Table 6, Hck-1 kinase inhibition class
# T12 construct: Kinases are expressed as either kinase domains or full length constructs; made in house
# Lyn = biological target: T13, Lyn (Homo sapiens, UniProt P07948); assay: Kinase inhibition assay (33P transfer), Lyn; conditions: Table 6, Lyn-1 kinase inhibition class
# T13 construct: Kinases are expressed as either kinase domains or full length constructs; made in house
# Procedure, shortened: as §1
# c-Met = biological target: T14, c-Met (Homo sapiens, UniProt P08581); assay: Kinase inhibition assay (33P transfer), c-Met; conditions: Table 2, kinase inhibition class; read-out: Met-1
# T14 construct: Kinases are expressed as either kinase domains or full length constructs; made in house
# Procedure, shortened: as §1
# T11 sequence (Q9Y243 whole entry, the tested form may be a part): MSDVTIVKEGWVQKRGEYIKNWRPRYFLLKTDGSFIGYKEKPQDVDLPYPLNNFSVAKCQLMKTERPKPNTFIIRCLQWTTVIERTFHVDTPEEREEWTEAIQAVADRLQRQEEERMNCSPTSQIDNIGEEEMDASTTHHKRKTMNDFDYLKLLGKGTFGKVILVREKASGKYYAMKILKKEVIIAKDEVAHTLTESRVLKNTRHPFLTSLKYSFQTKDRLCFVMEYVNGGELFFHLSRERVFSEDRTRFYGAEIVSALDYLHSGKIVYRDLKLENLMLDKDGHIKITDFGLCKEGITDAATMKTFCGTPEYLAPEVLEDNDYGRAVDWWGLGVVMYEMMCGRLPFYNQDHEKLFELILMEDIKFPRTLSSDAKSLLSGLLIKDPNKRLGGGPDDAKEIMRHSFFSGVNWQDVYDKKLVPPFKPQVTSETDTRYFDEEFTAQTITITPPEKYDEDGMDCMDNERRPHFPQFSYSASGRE
# T6 sequence (P35968 20-1356, species assumed): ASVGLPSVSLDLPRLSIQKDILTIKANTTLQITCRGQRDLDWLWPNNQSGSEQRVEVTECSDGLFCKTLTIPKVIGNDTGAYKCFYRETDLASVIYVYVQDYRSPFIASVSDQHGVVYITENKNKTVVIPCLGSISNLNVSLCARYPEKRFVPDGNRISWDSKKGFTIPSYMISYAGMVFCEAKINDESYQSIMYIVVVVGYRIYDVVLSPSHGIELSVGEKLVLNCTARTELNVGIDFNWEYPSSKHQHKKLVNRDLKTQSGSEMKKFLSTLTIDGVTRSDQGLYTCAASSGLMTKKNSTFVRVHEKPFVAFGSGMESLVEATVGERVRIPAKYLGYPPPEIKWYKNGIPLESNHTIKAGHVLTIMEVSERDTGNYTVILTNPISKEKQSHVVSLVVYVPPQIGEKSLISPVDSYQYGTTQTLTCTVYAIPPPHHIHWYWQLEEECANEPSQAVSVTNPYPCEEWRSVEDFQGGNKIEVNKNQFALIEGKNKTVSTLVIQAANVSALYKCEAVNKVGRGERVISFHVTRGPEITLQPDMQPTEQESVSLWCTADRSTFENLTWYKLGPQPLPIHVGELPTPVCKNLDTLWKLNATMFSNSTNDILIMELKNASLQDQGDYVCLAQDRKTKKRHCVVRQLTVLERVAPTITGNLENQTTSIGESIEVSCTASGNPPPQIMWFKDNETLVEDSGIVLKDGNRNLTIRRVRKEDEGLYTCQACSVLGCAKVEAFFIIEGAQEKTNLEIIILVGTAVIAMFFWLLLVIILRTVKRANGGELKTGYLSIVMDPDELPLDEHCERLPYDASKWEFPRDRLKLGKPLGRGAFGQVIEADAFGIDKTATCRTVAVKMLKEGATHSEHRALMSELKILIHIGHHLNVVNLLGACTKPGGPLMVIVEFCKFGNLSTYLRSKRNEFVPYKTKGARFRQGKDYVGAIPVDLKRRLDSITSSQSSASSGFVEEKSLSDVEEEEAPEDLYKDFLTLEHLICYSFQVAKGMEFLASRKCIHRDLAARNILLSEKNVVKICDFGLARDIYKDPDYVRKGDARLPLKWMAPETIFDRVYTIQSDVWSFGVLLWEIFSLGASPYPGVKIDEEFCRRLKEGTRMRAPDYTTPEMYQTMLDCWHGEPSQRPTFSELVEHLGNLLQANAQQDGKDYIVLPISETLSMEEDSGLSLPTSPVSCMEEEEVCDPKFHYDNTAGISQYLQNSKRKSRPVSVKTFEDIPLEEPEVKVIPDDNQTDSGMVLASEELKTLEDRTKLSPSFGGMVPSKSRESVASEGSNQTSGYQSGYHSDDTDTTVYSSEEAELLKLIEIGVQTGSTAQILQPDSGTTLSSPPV
# T3 sequence (P09619 33-1106, species assumed): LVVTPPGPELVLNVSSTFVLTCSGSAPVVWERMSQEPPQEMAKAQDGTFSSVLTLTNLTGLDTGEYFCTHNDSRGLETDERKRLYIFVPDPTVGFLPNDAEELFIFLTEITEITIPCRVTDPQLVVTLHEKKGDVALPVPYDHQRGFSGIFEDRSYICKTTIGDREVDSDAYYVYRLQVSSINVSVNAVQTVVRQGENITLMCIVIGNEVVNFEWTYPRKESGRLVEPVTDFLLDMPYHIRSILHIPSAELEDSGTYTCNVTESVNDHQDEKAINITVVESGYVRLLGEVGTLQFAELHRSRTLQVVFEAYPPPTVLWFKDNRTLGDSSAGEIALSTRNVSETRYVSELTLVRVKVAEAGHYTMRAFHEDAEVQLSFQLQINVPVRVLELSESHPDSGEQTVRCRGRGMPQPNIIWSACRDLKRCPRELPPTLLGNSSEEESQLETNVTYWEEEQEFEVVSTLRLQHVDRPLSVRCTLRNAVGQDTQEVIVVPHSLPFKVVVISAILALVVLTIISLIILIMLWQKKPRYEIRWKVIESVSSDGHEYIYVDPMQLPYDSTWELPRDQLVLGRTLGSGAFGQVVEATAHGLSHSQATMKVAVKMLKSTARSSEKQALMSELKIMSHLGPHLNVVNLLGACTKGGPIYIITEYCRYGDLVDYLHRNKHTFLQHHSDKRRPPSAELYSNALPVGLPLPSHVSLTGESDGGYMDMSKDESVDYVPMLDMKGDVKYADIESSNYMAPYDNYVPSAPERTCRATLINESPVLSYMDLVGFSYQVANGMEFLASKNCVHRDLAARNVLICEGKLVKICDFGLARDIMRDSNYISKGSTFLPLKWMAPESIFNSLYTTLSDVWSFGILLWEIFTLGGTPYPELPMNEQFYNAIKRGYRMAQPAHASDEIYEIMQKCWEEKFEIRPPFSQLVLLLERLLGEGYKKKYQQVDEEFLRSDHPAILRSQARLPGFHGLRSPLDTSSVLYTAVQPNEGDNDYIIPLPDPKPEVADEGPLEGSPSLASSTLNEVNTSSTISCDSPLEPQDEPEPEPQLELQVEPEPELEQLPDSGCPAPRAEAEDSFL
# T14 sequence (P08581 25-1390): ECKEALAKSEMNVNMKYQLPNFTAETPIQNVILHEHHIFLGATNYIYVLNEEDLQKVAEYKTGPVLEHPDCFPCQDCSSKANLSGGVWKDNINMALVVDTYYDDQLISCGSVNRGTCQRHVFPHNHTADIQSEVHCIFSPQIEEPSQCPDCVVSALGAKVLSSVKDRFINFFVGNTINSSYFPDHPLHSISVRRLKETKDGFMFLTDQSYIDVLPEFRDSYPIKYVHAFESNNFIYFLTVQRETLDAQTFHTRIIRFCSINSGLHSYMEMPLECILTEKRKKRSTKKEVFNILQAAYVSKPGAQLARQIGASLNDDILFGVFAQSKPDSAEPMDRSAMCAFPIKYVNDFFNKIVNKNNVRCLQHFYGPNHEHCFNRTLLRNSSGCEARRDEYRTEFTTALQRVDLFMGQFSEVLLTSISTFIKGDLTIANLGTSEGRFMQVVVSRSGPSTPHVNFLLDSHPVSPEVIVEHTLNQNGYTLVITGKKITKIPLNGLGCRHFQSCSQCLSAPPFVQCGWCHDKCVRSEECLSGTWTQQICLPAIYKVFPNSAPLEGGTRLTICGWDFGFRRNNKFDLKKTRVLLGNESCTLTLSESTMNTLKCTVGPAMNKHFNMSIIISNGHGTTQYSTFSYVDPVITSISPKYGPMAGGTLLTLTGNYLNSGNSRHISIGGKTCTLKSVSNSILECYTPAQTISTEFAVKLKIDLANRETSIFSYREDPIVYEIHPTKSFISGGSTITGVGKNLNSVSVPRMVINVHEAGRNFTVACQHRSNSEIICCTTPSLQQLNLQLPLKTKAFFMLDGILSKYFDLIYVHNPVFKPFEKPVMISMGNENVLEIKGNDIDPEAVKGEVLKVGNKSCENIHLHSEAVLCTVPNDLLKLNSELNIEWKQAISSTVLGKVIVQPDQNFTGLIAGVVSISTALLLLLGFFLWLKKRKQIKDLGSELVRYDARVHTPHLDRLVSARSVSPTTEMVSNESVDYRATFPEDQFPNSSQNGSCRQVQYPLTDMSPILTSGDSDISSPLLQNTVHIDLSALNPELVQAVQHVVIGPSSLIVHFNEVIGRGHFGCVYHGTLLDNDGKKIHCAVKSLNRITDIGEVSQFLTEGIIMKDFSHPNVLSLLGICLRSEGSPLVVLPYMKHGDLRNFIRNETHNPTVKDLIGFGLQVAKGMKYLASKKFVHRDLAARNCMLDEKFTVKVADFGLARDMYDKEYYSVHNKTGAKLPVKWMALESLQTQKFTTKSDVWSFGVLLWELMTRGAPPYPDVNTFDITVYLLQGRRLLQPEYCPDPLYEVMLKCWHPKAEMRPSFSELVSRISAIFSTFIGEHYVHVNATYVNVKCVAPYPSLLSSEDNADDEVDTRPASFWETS
# T12 sequence (P08631 whole entry, the tested form may be a part): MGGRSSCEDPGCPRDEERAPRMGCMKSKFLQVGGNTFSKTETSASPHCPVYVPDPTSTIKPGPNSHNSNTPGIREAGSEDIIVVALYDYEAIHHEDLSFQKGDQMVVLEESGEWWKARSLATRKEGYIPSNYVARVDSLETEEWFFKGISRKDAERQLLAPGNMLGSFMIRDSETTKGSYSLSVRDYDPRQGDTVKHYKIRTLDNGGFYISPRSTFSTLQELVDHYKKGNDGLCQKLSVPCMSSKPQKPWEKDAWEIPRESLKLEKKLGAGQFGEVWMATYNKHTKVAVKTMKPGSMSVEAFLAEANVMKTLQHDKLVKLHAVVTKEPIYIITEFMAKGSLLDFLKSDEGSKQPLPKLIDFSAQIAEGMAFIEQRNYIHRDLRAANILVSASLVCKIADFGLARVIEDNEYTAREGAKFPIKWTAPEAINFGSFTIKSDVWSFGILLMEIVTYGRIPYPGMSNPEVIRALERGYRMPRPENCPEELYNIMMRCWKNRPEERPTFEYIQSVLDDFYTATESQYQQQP
IC50 (Flt-1),IC50 (Fyn),IC50 (PDGFRB),IC50 (Itk),IC50 (Lck),IC50 (Kdr),IC50 (ErbB4),IC50 (Zap-70),IC50 (IGFR-1),IC50 (FGFR1),IC50 (AKT),IC50 (Hck-1),IC50 (Lyn),IC50 (c-Met),SMILES
< 0.906 µM,0.906 to 5.44 µM,< 0.906 µM,5.44 to 7.93 µM,0.906 to 5.44 µM,< 0.906 µM,7.93 to 10.2 µM,> 10.2 µM,0.906 to 5.44 µM,0.906 to 5.44 µM,> 10.2 µM,7.93 to 10.2 µM,< 0.906 µM,> 10.2 µM,COCCOc1ccc(Nc2ncnc(Nc3ccc(C)c(O)c3)n2)cc1OCCOC [Compound 125]
< 1.02 µM,< 1.02 µM,< 1.02 µM,> 11.4 µM,< 1.02 µM,< 1.02 µM,> 11.4 µM,> 11.4 µM,> 11.4 µM,< 1.02 µM,> 11.4 µM,> 11.4 µM,< 1.02 µM,1.02 to 6.1 µM,COc1cc(Nc2ncnc(N3CCCc4ccccc43)n2)cc(OC)c1OC [Compound 609]
9.08 to 11.7 µM,1.04 to 6.23 µM,< 1.04 µM,> 11.7 µM,1.04 to 6.23 µM,< 1.04 µM,6.23 to 9.08 µM,> 11.7 µM,< 1.04 µM,> 11.7 µM,> 11.7 µM,> 11.7 µM,< 1.04 µM,6.23 to 9.08 µM,COc1cc(Nc2ncnc(Nc3ccc(C)cc3F)n2)cc(OC)c1OC [Compound 937]
> 9.49 µM,> 9.49 µM,> 9.49 µM,> 9.49 µM,5.06 to 7.38 µM,0.844 to 5.06 µM,> 9.49 µM,> 9.49 µM,> 9.49 µM,5.06 to 7.38 µM,> 9.49 µM,> 9.49 µM,5.06 to 7.38 µM,> 9.49 µM,COc1ccc(Nc2ncnc(N(C/C=C/c3ccccc3)c3ccc(Cl)cc3)n2)cc1OC [Compound 974]
< 1 µM,< 1 µM,< 1 µM,> 11.3 µM,1 to 6.01 µM,< 1 µM,1 to 6.01 µM,> 11.3 µM,1 to 6.01 µM,1 to 6.01 µM,> 11.3 µM,1 to 6.01 µM,< 1 µM,> 11.3 µM,COc1ccc(Nc2ncnc(Nc3cc(OC)c(OC)c(OC)c3)n2)cc1O [Compound 931]
0.935 to 5.61 µM,0.935 to 5.61 µM,< 0.935 µM,> 10.5 µM,0.935 to 5.61 µM,< 0.935 µM,0.935 to 5.61 µM,> 10.5 µM,5.61 to 8.18 µM,0.935 to 5.61 µM,> 10.5 µM,> 10.5 µM,< 0.935 µM,0.935 to 5.61 µM,C=CCN(c1ccc(Cl)cc1)c1ncnc(Nc2cc(OC)c(OC)c(OC)c2)n1 [Compound 972]
5.06 to 7.38 µM,0.843 to 5.06 µM,0.843 to 5.06 µM,> 9.48 µM,0.843 to 5.06 µM,< 0.843 µM,< 0.843 µM,5.06 to 7.38 µM,0.843 to 5.06 µM,0.843 to 5.06 µM,0.843 to 5.06 µM,> 9.48 µM,< 0.843 µM,5.06 to 7.38 µM,COc1ccc(Nc2ccc(Nc3ncnc(Nc4cc(OC)c(OC)c(OC)c4)n3)cc2)cc1 [Compound 922]
> 11 µM,> 11 µM,0.982 to 5.89 µM,> 11 µM,> 11 µM,0.982 to 5.89 µM,> 11 µM,> 11 µM,> 11 µM,> 11 µM,> 11 µM,> 11 µM,> 11 µM,> 11 µM,COc1cc(Nc2ncnc(-n3ccc4c(OC)cccc43)n2)cc(OC)c1OC [Compound 238]
> 11.6 µM,< 1.03 µM,< 1.03 µM,6.19 to 9.02 µM,1.03 to 6.19 µM,< 1.03 µM,6.19 to 9.02 µM,9.02 to 11.6 µM,< 1.03 µM,1.03 to 6.19 µM,> 11.6 µM,> 11.6 µM,< 1.03 µM,1.03 to 6.19 µM,COc1cc(Nc2ncnc(Nc3cccc(Cl)c3)n2)cc(OC)c1OC [Compound 135]
> 10.6 µM,> 10.6 µM,> 10.6 µM,> 10.6 µM,> 10.6 µM,0.942 to 5.65 µM,5.65 to 8.25 µM,> 10.6 µM,> 10.6 µM,> 10.6 µM,> 10.6 µM,> 10.6 µM,> 10.6 µM,> 10.6 µM,COc1cc(Nc2ncnc(N3CCc4cc([N+](=O)[O-])ccc43)n2)cc(OC)c1OC [Compound 187]
> 13.3 µM,1.19 to 7.11 µM,1.19 to 7.11 µM,> 13.3 µM,10.4 to 13.3 µM,7.11 to 10.4 µM,10.4 to 13.3 µM,> 13.3 µM,7.11 to 10.4 µM,1.19 to 7.11 µM,> 13.3 µM,> 13.3 µM,< 1.19 µM,> 13.3 µM,COc1ccc(Nc2ncnc(Nc3cccc(C)c3)n2)cc1OC [Compound 108]
> 11.7 µM,1.04 to 6.23 µM,< 1.04 µM,6.23 to 9.08 µM,1.04 to 6.23 µM,< 1.04 µM,1.04 to 6.23 µM,> 11.7 µM,< 1.04 µM,6.23 to 9.08 µM,> 11.7 µM,> 11.7 µM,< 1.04 µM,6.23 to 9.08 µM,COc1cc(Nc2ncnc(Nc3ccc(C)c(F)c3)n2)cc(OC)c1OC [Compound 300]
1.06 to 6.34 µM,> 11.9 µM,< 1.06 µM,> 11.9 µM,1.06 to 6.34 µM,< 1.06 µM,> 11.9 µM,> 11.9 µM,1.06 to 6.34 µM,> 11.9 µM,> 11.9 µM,> 11.9 µM,9.25 to 11.9 µM,1.06 to 6.34 µM,COc1cc(Nc2ncnc(-n3cnc4ccccc43)n2)cc(OC)c1OC [Compound 186]
> 10.7 µM,> 10.7 µM,> 10.7 µM,> 10.7 µM,> 10.7 µM,0.951 to 5.71 µM,> 10.7 µM,> 10.7 µM,> 10.7 µM,> 10.7 µM,> 10.7 µM,> 10.7 µM,> 10.7 µM,0.951 to 5.71 µM,COc1cc(Nc2ncnc(Nc3nnc(-c4ccccc4)[nH]3)n2)cc(OC)c1OC [Compound 311]
